tested on: Xanthomonas citri subsp. citri; assay: Growth curve of Xcc (OD 600 nm); format: cell-based; conditions: MIC and ½ MIC, 72 h
Description: According to the growth curves of the positive control (PC) and vehicle control (DMSO), it was observed that Xcc reaches the maximum growth phase in a period of 15 h. […] The early growth inhibition (lag phase), which happens in the first hours of contact (period of the first cellular divisions) can be a dynamic process. […] This can be explained because the compounds have bacteriostatic action; that is, as the time passes, the cells become able to recover and restart doubling. Another important finding is that the lag phase consists in the cell adaptation to the new medium conditions and the bacterial population is smaller in relation to the exponential phase facilitates the action of the compounds in the first hours (Figure 1).
An isolated colony of Xanthomonas citri subsp. citri was inoculated in NYG medium for 12 h at 29 °C. After this, the optical density (OD 600 nm) was measured and adjusted to ~0.1. […] Optical density reading was measured on a Synergy H1-BioTek plate reader every 30 min for 72 h. The growth curves were plotted with GraphPad Prism software. At the same time, the degradation assay was performed, solubilizing the compounds in DMSO, which were later incorporated in NYG medium. Later, we scanned the compounds to measure the absorbance values from 210 to 700 nm, and the maximum lambda value of each compound was selected after scanning. After that, punctual readings were carried out every 30 min for 72 h.

| SMILES | effect on Xcc growth curve |
| --- | --- |
| CCCCCCCOC(=O)c1ccc(O)cc1O [Compound 4] | delay in the exponential phase |
| CCCCCCCOC(=O)c1cc(O)ccc1O [Compound 16] | delay in the exponential phase |
| CCCCCCCOC(=O)c1ccc(O)c(O)c1 [Compound 28] | delay in the exponential phase |

Reference: paper PMC6213047, “Design of Antibacterial Agents: Alkyl Dihydroxybenzoates against Xanthomonas citri subsp. citri” (International Journal of Molecular Sciences, 2018)
